The values below come from paper PMC10017027, “Design and Synthesis of Novel HIV-1 NNRTIs with Bicyclic Cores and with Improved Physicochemical Properties” (Journal of Medicinal Chemistry, 2023).

Data set [1] in a line: MDCK permeability assay (A to B). Type of data set: in vitro ADME, Canine. The note with it: dog, MDCK.
In the next data set the test system is HIV-1 HXB2. The data set can be described thus: MT-4 antiviral cytopathic effect assay, HXB2 wild-type virus. The conditions noted are these: Human immunodeficiency virus 1, MT4; HIV-1 HXB2 wild-type, MT-4 cells; read-out: EC50 HXB2. Type of data set: cell-based. In general terms: Cytopathic effects are the visible damage that an infection or toxin causes in cultured cells.

The nature of another data set: in vitro. The class given is cell-based. The conditions noted are these: human.
For another data set, the system named is HIV-1 HXB2 K103N variant. The data set is described as follows: MT-4 antiviral cytopathic effect assay, HXB2-K103N. Type of data set: cell-based.

Bounds are passed on as bounds.

The term Papp A→B denotes how fast a substance crosses the layer from the apical side. A word on the EC50: it is the concentration that produces a half-maximal response. In general, CC50 refers to the concentration that lowers cell viability or growth by half. Regarding `Cc1cc(C#N)cc(C)c1N1CC(=O)Nc2cnc(Nc3ccc(C#N)cc3)nc21` [Compound 3, 4-(2-((4-Cyanophenyl)amino)-6-oxo-6,7-dihydropteridin-8(5H)-yl)-3,5-dimethylbenzonitrile], the Papp A→B at 120 min in data set [1] (supplement CSV) was 41 nm/s; in data set [1] (apparent permeability coefficient, A to B, pH 7.4), 41 nm/s. The EC50 in the data set on HIV-1 HXB2 stood at 0.0081 µM; with HIV-1 HXB2 K103N variant (Human immunodeficiency virus 1, HXB2, read-out: EC50 K103N), 0.0452 µM. In “in vitro”, this molecule registered a half-maximal cytotoxic concentration (CC50) at 5 days of over 50 µM. For the same molecule, the “K103N (FC)” value with HIV-1 HXB2 K103N variant (fold change: ratio of potency against HXB2 K103N and parental HXB2) amounted to 5.6; in the data set on HIV-1 HXB2 K103N variant (supplement CSV, fold change vs HXB2), 5.6. Besides, the “potency against K103N mutated strain” value in the data set on HIV-1 HXB2 K103N variant (preliminary biological data, in words) is “high potency”.
